Test results reported in US7160733B2, “Ligand specific to β2-glycoprotein I and use thereof” (priority 2001, dated 2007).

T1: β2-GPI (Homo sapiens, UniProt P02749)
T1 construct: β2-GPI was purified from normal human plasma as described in [35] with slight modification; from tissue; host or cells: pooled normal human plasma from healthy subjects
T1 sequence (P02749 20-345): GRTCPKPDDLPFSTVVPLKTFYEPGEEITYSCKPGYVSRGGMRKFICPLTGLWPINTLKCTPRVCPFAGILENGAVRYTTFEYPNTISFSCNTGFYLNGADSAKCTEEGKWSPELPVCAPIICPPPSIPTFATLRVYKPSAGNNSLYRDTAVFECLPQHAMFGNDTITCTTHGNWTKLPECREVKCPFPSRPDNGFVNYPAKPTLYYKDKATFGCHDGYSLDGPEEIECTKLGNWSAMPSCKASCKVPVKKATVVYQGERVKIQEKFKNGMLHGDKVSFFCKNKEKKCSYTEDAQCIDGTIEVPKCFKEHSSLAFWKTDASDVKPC

B1: Ovalbumin: control protein added in Experiment 2 (protein, UniProt P01012 2-386, looked up)
Ovalbumin: GSIGAASMEFCFDVFKELKVHHANENIFYCPIAIMSALAMVYLGAKDSTRTQINKVVRFDKLPGFGDSIEAQCGTSVNVHSSLRDILNQITKPNDVYSFSLASRLYAEERYPILPEYLQCVKELYRGGLEPINFQTAADQARELINSWVESQTNGIIRNVLQPSSVDSQTAMVLVNAIVFKGLWEKAFKDEDTQAMPFRVTEQESKPVQMMYQIGLFRVASMASEKMKILELPFASGTMSMLVLLPDEVSGLEQLESIINFEKLTEWTSSNVMEERKIKVYLPRMKMEEKYNLTSVLMAMGITDVFSSSANLSGISSAESLKISQAVHAAHAEINEAGREVVGSAEAGVDAASVSEEFRADHPFLFCIKHIATNAVLFFGRCVSP

Legend:
WB-CAL-1 [1] = experiment: ELISA on solid-phase lipid (ligand)-coated plate: WB-CAL-1 binding in presence of β2-GPI; set-up: species or system mouse; settings: Absorbance, mean ± SD, n = 3; for Binding of protein-dependent oxLig-1 antibody, WB-CAL-1: Experiment 2, synthesized oxLig-1-solidified plate, added protein 15 μg/mL
Description: (§1) Binding to extracted lipids: A microtiter plate (Immulon 1B, Dynex Technologies Inc.) was coated with lipids extracted from LDLs (50 μg/mL, 50 μL/well) by ethanol evaporation. The wells were blocked with PBS containing 1% BSA for one hour and the wells were incubated with 30 μg/mL of β2-GPI for one hour. Then, β2-GPI binding was detected using Cof-22 and HRP-labeled anti-mouse IgG antibodies. Alternatively, an anti-β2-GPI autoantibody (Cof-22, WB-CAL-1, or EY2C9) was diluted with a 0.3% BSA-containing PBS, and the diluted antibody was added to the coated plate (1.0 μg/mL, 100 μL/well) and incubated with β2-GPI (15 μg/mL) for one hour. The binding of the antibody was detected by an HRP-labeled anti-mouse IgG /or an anti-human IgM. The color was developed with H2O2 and o-phenylenediamine, and OD was measured at 490 nm. Between these steps, extensive washing were done using PBS containing 0.05% Tween 20.
(§2) Synthesized oxLig-1 (50 μg/mL, 50 μL/well) was adsorbed by evaporation on a polystyrene plate (Immulon 1B; Dynex Technologies Inc.), and the plate was then blocked with 1% BSA. Serum samples (diluted 1:100 with PBS containing 0.3% BSA) were incubated in the wells with β2-GPI (15 μg/mL) or other proteins for one hour at room temperature. Antibody binding was detected with HRP-labeled anti-human IgG. Further steps were performed through a method as described in “anti-β2-GPI ELISA.”
(§3) CL (50 μg/mL, 50 μL/well) was adsorbed on a polystyrene plate (Immulon 1B), and further steps were performed through a method as described in “ELISA for antibodies against a protein-oxLig-1 complex.”

anti-β2-GPI antibodies = experiment: ELISA of the anti-β2-GPI antibodies by use of a ligand-coated plate (results in words); assay type: binding
Description: as §1, §2

β2-GPI [2] = experiment: ELISA on solid-phase lipid (ligand)-coated plate: β2-GPI binding detected with Cof-22; set-up: species or system human; settings: Experiment 2; Absorbance, mean ± SD, n = 3; synthesized oxLig-1-solidified plate, added protein 15 μg/mL
Description: as §1, §2, §3

EY2C9 = experiment: ELISA on solid-phase lipid (ligand)-coated plate: EY2C9 binding in presence of β2-GPI; set-up: species or system human; settings: Absorbance, mean ± SD, n = 3; for Binding of protein-dependent oxLig-1 antibody, EY2C9: Experiment 2, synthesized oxLig-1-solidified plate, added protein 15 μg/mL
Description: as §1, §2, §3

APS-1 = experiment: ELISA on solid-phase lipid-coated plate: binding of antibodies of APS patient serum APS-1; set-up: species or system human; settings: Absorbance, mean ± SD, n = 3; for Binding of protein-dependent oxLig-1 antibody, APS-1: Experiment 2, synthesized oxLig-1-solidified plate, added protein 15 μg/mL
Description: (§4) To eliminate endogenous β2-GPI in some experiments, serum samples were passed through a heparin-Sepharose column. The effluent was dialyzed against PBS and was used for ELISAs.
as §2, §3

APS-2 = experiment: ELISA on solid-phase lipid-coated plate: binding of antibodies of APS patient serum APS-2; set-up: species or system human; settings: Absorbance, mean ± SD, n = 3; for Binding of protein-dependent oxLig-1 antibody, APS-2: Experiment 2, synthesized oxLig-1-solidified plate, added protein 15 μg/mL
Description: as §4, §2, §3

β2-GPI [3] = biological target: T1, β2-GPI; experiment: ELISA on solid-phase lipid (ligand)-coated plate: β2-GPI binding detected with Cof-22; settings: Experiment 1; Absorbance, mean ± SD, n = 3; solid-phase lipid, β2-GPI 15 μg/mL
Description: as §1, §2, §3

β2-GPI [4] = biological target: T1, β2-GPI; experiment: Optical biosensor (IAsys): binding to solid phase β2-GPI; settings: result in words
Source text: (§5) FIG. 1. Molecular interactions among β2-GPI, LDLs, […] (PLs), and anti-β2-GPI autoantibody, detected by an optical biosensor. • A: LDL (open square) or oxLDL (closed square) binding to solid phase β2-GPI; • B: LDL (open square) or oxLDL (closed square) binding to solid phase WB-CAL-1 in the presence of β2-GPI; • C: DOPE (open circle) or CL (closed circle) binding to solid phase β2-GPI; and • D: DOPE (open circle) or CL (closed circle) binding to solid phase WB-CAL-1 in the presence of β2-GPI.
(§6) Real-time molecular analysis was performed using an optical biosensor, IAsys (product of Affinity Sensors).
(§7) Binding of β2-GPI to LDLs or liposomes: Biotinyl-β2-GPI was immobilized on a biotinyl-cuvette via streptavidin. LDLs or liposomes at various concentrations were placed in the cuvette. Antibodies binding to LDLs or liposomes: The biotinyl-WB-CAL-1 was immobilized on the cuvette. LDLs or liposomes were added at various concentrations in the presence (10 μg/mL) or absence of β2-GPI.

WB-CAL-1 [5] = experiment: Optical biosensor (IAsys): binding to solid phase WB-CAL-1 in the presence of β2-GPI; set-up: species or system mouse; settings: β2-GPI 10 μg/mL, result in words
Source text: as §5, §6, §7

[6] = Experiment 1, solid-phase lipid, β2-GPI 15 μg/mL
[7] = Experiment 1, solid-phase lipid, β2-GPI 15 μg/mL, serum with β2-GPI removed

Row | Molecule | Binding of protein-dependent oxLig-1 antibody, WB-CAL-1 (WB-CAL-1 [1]) | antibody binding to solid-phase oxLig-1 provided by added protein (anti-β2-GPI antibodies; Exp-2, result in words) | Binding of protein-dependent oxLig-1 antibody, Cof-22 (β2-GPI [2]) | Binding of protein-dependent oxLig-1 antibody, EY2C9 (EY2C9) | Binding of protein-dependent oxLig-1 antibody, APS-1 (APS-1) | Binding of protein-dependent oxLig-1 antibody, APS-2 (APS-2) | Binding of β2-GPI-dependent aCL, WB-CAL-1 (WB-CAL-1 [1]; [6]) | cross-reaction of autoantibodies derived from APS with β2-GPI complexed with lipid (anti-β2-GPI antibodies; result in words) | Binding of β2-GPI-dependent aCL, Cof-22 (β2-GPI [3]) | Binding of β2-GPI-dependent aCL, EY2C9 (EY2C9; [6]) | binding to solid phase β2-GPI (β2-GPI [4]) | Binding of β2-GPI-dependent aCL, APS-1 (APS-1; [7]) | binding to solid phase WB-CAL-1 in the presence of β2-GPI (WB-CAL-1 [5]) | Binding of β2-GPI-dependent aCL, APS-2 (APS-2; [7])
1 | Haptoglobin: protein having sushi domains, without PL binding property | 0.006 ± 0.001 | no antibody binding | 0.049 ± 0.001 | 0.006 ± 0.001 | 0.018 ± 0.011 | 0.015 ± 0.002 | – | – | – | – | – | – | – | –
2 | Cardiolipin [CL, reference compound] | – | – | – | – | – | – | 1.361 ± 0.008 | cross-reacted | 1.132 ± 0.025 | 1.269 ± 0.014 | large extent of binding | 2.099 ± 0.216 | dose-dependent binding | 1.282 ± 0.041
3 | CCCCCCCC/C=C\CCCCCCCC(=O)OC[C@H](COP(=O)(O)OCCN)OC(=O)CCCCCCC/C=C\CCCCCCCC [DOPE] | – | – | – | – | – | – | – | – | – | – | did not show any specific binding | – | did not | –
4 | B1 | 0.006 ± 0.002 | – | 0.042 ± 0.001 | 0.004 ± 0.002 | 0.009 ± 0.004 | 0.016 ± 0.001 | – | – | – | – | – | – | – | –
